Publication PMC5773651, “Customised in vitro model to detect human metabolism-dependent idiosyncratic drug-induced liver injury” (Archives of Toxicology, 2017)
Where two headings read alike, the source gives them in different places. Marks after values point to notes of the source that are not given here. Values belong to the compound of their own block, whether it stands above or below them.

What was measured:
[1] = cited from earlier work; for Bioactivation / Enzyme: major enzyme(s) involved in the bioactivation (denoted as *) or detoxification of the drug: previous information; for Toxicity (mechanisms of toxicity): ref Ashrafian et al. [2007], Donato et al. [2009], Fromenty and Pessayre [1997], Rolo et al. [2000], Tolosa et al. [2012b]; for DILI category: ref Gustafsson et al. ([2014])
[2] = system: HepG2 cells transduced with AdCYP2C19; experiment: Cell viability (PI), IC50, AdCYP2C19-HepG2; format: cell-based; details: Homo sapiens, unit inferred, tested range in µM
Experimental: (§1) For subculturing purposes, cells were detached by treatment with 0.25% trypsin/0.02% EDTA at 37 °C. For the adenovirus infection studies, cells were seeded in 96-well plates (5000 cells/well) and adenovirus-containing medium was added 48 h later. After 24 h, cells were transferred to the adenovirus-free medium and cultured for an additional 24-h period prior to the incubations performed with the test chemicals. To optimise the expression of the functional enzymes in the adenovirus-transduced HepG2 (Ad-HepG2) cells, different doses (MOI, multiplicity of infection, defined as plaque formation units per cell) of each adenovirus were tested.
(§2) The drugs included in the study were chosen based on previous information about their hepatotoxicity. Information on the potential mechanisms implicated in the toxicity of each compound and the major enzymes involved in their metabolism is summarised in Table 1. HepG2 or Ad-HepG2 (48 h post-infection) cells were exposed for 24 h to eight concentrations of the tested compounds. Each experimental condition was repeated independently three times (with three wells measured each time). The stock solutions of compounds were prepared in DMSO and were conveniently diluted in the culture medium to obtain the desired final concentrations. The final DMSO concentration in the culture medium was 0.5% (v/v), and the control cultures were treated with the same amount of solvent.
(§3) Following treatments, cells were simultaneously loaded with several fluorescent dyes to measure multiple biomarkers of cell toxicity. […] Information about the probes is summarised in Supplementary Table S2.
(§4) After incubating with dyes, cells were imaged by the Scan^R system (Olympus, Germany). Dyes were excited, and their fluorescence was monitored at the excitation and emission wavelengths at appropriate filter settings. The collected images were analysed using the Scan^R analysis module, which allows the simultaneous quantification of subcellular structures that are stained by different fluorescent probes.

[3] = system: HepG2 cells transduced with AdCYP1A2; experiment: Cell viability (PI), IC50, AdCYP1A2-HepG2; format: cell-based; details: Homo sapiens, unit inferred, tested range in µM
Experimental: as §1, §2, §3, §4

[4] = system: HepG2 cells transduced with AdCYP2C19; experiment: HCS hepatotoxicity assay (MEC, TR), AdCYP2C19-HepG2; format: cell-based, human; details: 24 h; for TR: TR = 100 x Cmax/lowest MEC; for MEC Apoptosis / MEC Calcium / MEC MMP / MEC Mitochondrial superoxide / MEC ROS: unit inferred, tested range in µM
Experimental: as §1, §2, §3, §4

[5] = system: HepG2 cells transduced with AdCYP3A4; experiment: HCS hepatotoxicity assay (MEC, TR), AdCYP3A4-HepG2; format: cell-based, human; details: 24 h; for TR: TR = 100 x Cmax/lowest MEC; for MEC Apoptosis / MEC Calcium / MEC MMP / MEC Mitochondrial superoxide / MEC ROS: unit not given, tested range in µM
[6] = system: HepG2 cells transduced with AdCYP3A4; experiment: Cell viability (PI), IC50, AdCYP3A4-HepG2; format: cell-based; details: Homo sapiens, unit inferred, tested range in µM
Experimental: as §1, §2, §3, §4

[7] = system: HepG2 cells transduced with AdCYP1A2; experiment: HCS hepatotoxicity assay (MEC, TR), AdCYP1A2-HepG2; format: cell-based, human; details: 24 h; for MEC Apoptosis / MEC Calcium / MEC MMP / MEC Mitochondrial superoxide / MEC ROS: unit inferred, tested range in µM; for TR: TR = 100 x Cmax/lowest MEC
Experimental: as §1, §2, §3, §4

[8] = system: HepG2 cells; experiment: Cell viability (PI), IC50, control HepG2 cells; format: cell-based; details: Homo sapiens; control non-transduced HepG2; 24 h; unit inferred, tested range in µM; read-out: IC50 (cell viability), C
[9] = system: HepG2 cells; details: human, 24 h
Experimental: as §1, §2, §3, §4

[10] = ref Atienzar et al. ([2014]), Garside et al. ([2014]), Tolosa et al. ([2012b]); cited from earlier work
[11] = system: HepG2 cells transduced with AdCYP2D6; experiment: Cell viability (PI), IC50, AdCYP2D6-HepG2; format: cell-based; details: Homo sapiens, unit inferred, tested range in µM
Experimental: as §1, §2, §3, §4

[12] = system: HepG2 cells transduced with AdCYP2D6; experiment: HCS hepatotoxicity assay (MEC, TR), AdCYP2D6-HepG2; format: cell-based, human; details: 24 h; for TR: TR = 100 x Cmax/lowest MEC; for MEC Apoptosis / MEC Calcium / MEC Lipids / MEC MMP / MEC Mitochondrial superoxide / MEC ROS: unit inferred, tested range in µM
Experimental: as §1, §2, §3, §4

IC50 ([2]; ADV CYP2C19 x1, 24 h, read-out: IC50 (cell viability), ADV dose x1): 344 µM
IC50 ([2]; ADV CYP2C19 x4, 24 h, read-out: IC50 (cell viability), ADV dose x4): 309 µM
IC50 ([2]; ADV CYP2C19 x10, 24 h, read-out: IC50 (cell viability), ADV dose x10): 255 µM
IC50 ([3]; ADV CYP1A2 x1, 24 h, read-out: IC50 (cell viability), ADV dose x1): 384 µM
IC50 ([3]; ADV CYP1A2 x4, 24 h, read-out: IC50 (cell viability), ADV dose x4): 261 µM
IC50 ([3]; ADV CYP1A2 x10, 24 h, read-out: IC50 (cell viability), ADV dose x10): 248 µM
IC50 ([6]; ADV CYP3A4 x1, 24 h, read-out: IC50 (cell viability), ADV dose x1): 219 µM
IC50 ([6]; ADV CYP3A4 x4, 24 h, read-out: IC50 (cell viability), ADV dose x4): 176 µM
IC50 ([6]; ADV CYP3A4 x10, 24 h, read-out: IC50 (cell viability), ADV dose x10): 145 µM
IC50 [8]: 398 µM
MEC Calcium [9]: 500
MEC MMP [9]: 500
MEC Mitochondrial superoxide [9]: 500
MEC ROS [9]: 500
TR [9]: 1.2
SMILES: CC(C)C(=O)Nc1ccc([N+](=O)[O-])c(C(F)(F)F)c1 [Flutamide]
Bioactivation [1]: Yes
Enzyme: major enzyme(s) involved in the bioactivation (denoted as *) or detoxification of the drug [1]: CYP1A2*, CYP2C19*, CYP3A4*
Toxicity (mechanisms of toxicity) [1]: MI, OS
DILI category [1]: Severe
TR ([4]; AdCYP 2C19 1x): 2.5
MEC Apoptosis ([4]; AdCYP 2C19 1x): 250 µM
MEC Calcium ([4]; AdCYP 2C19 1x): 250 µM
MEC MMP ([4]; AdCYP 2C19 1x): 250 µM
MEC Mitochondrial superoxide ([4]; AdCYP 2C19 1x): 250 µM
MEC ROS ([4]; AdCYP 2C19 1x): 250 µM
TR ([4]; AdCYP 2C19 4x): 6.2
MEC Apoptosis ([4]; AdCYP 2C19 4x): 250 µM
MEC Calcium ([4]; AdCYP 2C19 4x): 100 µM
MEC MMP ([4]; AdCYP 2C19 4x): 250 µM
MEC Mitochondrial superoxide ([4]; AdCYP 2C19 4x): 250 µM
MEC ROS ([4]; AdCYP 2C19 4x): 250 µM
TR ([4]; AdCYP 2C19 10x): 12.4
MEC Apoptosis ([4]; AdCYP 2C19 10x): 100 µM
MEC Calcium ([4]; AdCYP 2C19 10x): 75 µM
MEC MMP ([4]; AdCYP 2C19 10x): 250 µM
MEC Mitochondrial superoxide ([4]; AdCYP 2C19 10x): 50 µM
MEC ROS ([4]; AdCYP 2C19 10x): 50 µM
TR ([5]; AdCYP 3A4 1x): 2.5
MEC Apoptosis ([5]; AdCYP 3A4 1x): 500
MEC Calcium ([5]; AdCYP 3A4 1x): 250
MEC MMP ([5]; AdCYP 3A4 1x): 750
MEC Mitochondrial superoxide ([5]; AdCYP 3A4 1x): 500
MEC ROS ([5]; AdCYP 3A4 1x): 250
TR ([5]; AdCYP 3A4 4x): 5.0
MEC Apoptosis ([5]; AdCYP 3A4 4x): 250
MEC Calcium ([5]; AdCYP 3A4 4x): 250
MEC MMP ([5]; AdCYP 3A4 4x): 500
MEC Mitochondrial superoxide ([5]; AdCYP 3A4 4x): 250
MEC ROS ([5]; AdCYP 3A4 4x): 125
TR ([5]; AdCYP 3A4 10x): 5.0
MEC Apoptosis ([5]; AdCYP 3A4 10x): 125
MEC Calcium ([5]; AdCYP 3A4 10x): 250
MEC MMP ([5]; AdCYP 3A4 10x): 250
MEC Mitochondrial superoxide ([5]; AdCYP 3A4 10x): 125
MEC ROS ([5]; AdCYP 3A4 10x): 125
MEC Apoptosis ([7]; AdCYP 1A2 1x): 250 µM
MEC Calcium ([7]; AdCYP 1A2 1x): 500 µM
MEC MMP ([7]; AdCYP 1A2 1x): 500 µM
MEC Mitochondrial superoxide ([7]; AdCYP 1A2 1x): 75 µM
MEC ROS ([7]; AdCYP 1A2 1x): 500 µM
TR ([7]; AdCYP 1A2 4x): 12.4
MEC Apoptosis ([7]; AdCYP 1A2 4x): 250 µM
MEC Calcium ([7]; AdCYP 1A2 4x): 500 µM
MEC MMP ([7]; AdCYP 1A2 4x): 500 µM
MEC Mitochondrial superoxide ([7]; AdCYP 1A2 4x): 50 µM
MEC ROS ([7]; AdCYP 1A2 4x): 500 µM
TR ([7]; AdCYP 1A2 10x): 12.4
MEC Apoptosis ([7]; AdCYP 1A2 10x): 125 µM
MEC Calcium ([7]; AdCYP 1A2 10x): 50 µM
MEC MMP ([7]; AdCYP 1A2 10x): 500 µM
MEC Mitochondrial superoxide ([7]; AdCYP 1A2 10x): 50 µM
MEC ROS ([7]; AdCYP 1A2 10x): 250 µM
MEC Apoptosis [9]: 500 µM
Cmax [10]: 6.2 µM

IC50 ([11]; ADV CYP2D6 x1, 24 h, read-out: IC50 (cell viability), ADV dose x1): 24.4 µM
IC50 ([11]; ADV CYP2D6 x4, 24 h, read-out: IC50 (cell viability), ADV dose x4): 25.5 µM
IC50 ([11]; ADV CYP2D6 x10, 24 h, read-out: IC50 (cell viability), ADV dose x10): 27.4 µM
IC50 [8]: 22.5 µM
MEC Calcium [9]: 10
MEC Lipids [9]: 10
MEC MMP [9]: 22.5
MEC Mitochondrial superoxide [9]: 10
MEC ROS [9]: 25
TR [9]: 22
SMILES: C1CCC(C(CC2CCCCN2)C2CCCCC2)CC1 (centres unmarked) [Perhexiline]
Bioactivation [1]: No
Enzyme: major enzyme(s) involved in the bioactivation (denoted as *) or detoxification of the drug [1]: CYP2D6
Toxicity (mechanisms of toxicity) [1]: MI, ST
DILI category [1]: Severe
TR ([12]; AdCYP 2D6 1x): 17.6
MEC Apoptosis ([12]; AdCYP 2D6 1x): 22.5 µM
MEC Calcium ([12]; AdCYP 2D6 1x): 12.5 µM
MEC Lipids ([12]; AdCYP 2D6 1x): > 27.5 µM
MEC MMP ([12]; AdCYP 2D6 1x): 22.5 µM
MEC Mitochondrial superoxide ([12]; AdCYP 2D6 1x): 22.5 µM
MEC ROS ([12]; AdCYP 2D6 1x): > 27.5 µM
TR ([12]; AdCYP 2D6 4x): 17.6
MEC Apoptosis ([12]; AdCYP 2D6 4x): 25 µM
MEC Calcium ([12]; AdCYP 2D6 4x): 12.5 µM
MEC Lipids ([12]; AdCYP 2D6 4x): > 27.5 µM
MEC MMP ([12]; AdCYP 2D6 4x): 27.5 µM
MEC Mitochondrial superoxide ([12]; AdCYP 2D6 4x): 22.5 µM
MEC ROS ([12]; AdCYP 2D6 4x): > 27.5 µM
TR ([12]; AdCYP 2D6 10x): 17.6
MEC Apoptosis ([12]; AdCYP 2D6 10x): 25 µM
MEC Calcium ([12]; AdCYP 2D6 10x): 12.5 µM
MEC Lipids ([12]; AdCYP 2D6 10x): > 27.5 µM
MEC MMP ([12]; AdCYP 2D6 10x): > 27.5 µM
MEC Mitochondrial superoxide ([12]; AdCYP 2D6 10x): 22.5 µM
MEC ROS ([12]; AdCYP 2D6 10x): > 27.5 µM
MEC Apoptosis [9]: 15 µM
